Data reported in PubChem BioAssay (NCI).
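Tested at 5 concentrations; 48 h exposure; 96-well plates; endpoints linearly interpolated, else capped at highest concentration. TGI is the concentration that stops growth completely.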

Columns and labels:
Assay in all cases: inhibition of tumour cell growth, NCI panel, 48 h
786-0 renal = tested on: 786-0 renal
A498 renal = tested on: A498 renal
ACHN renal = tested on: ACHN renal
EKVX NSCLC = tested on: EKVX NSCLC
HCT-116 colon = tested on: HCT-116 colon
IGROV1 ovarian = tested on: IGROV1 ovarian
KM12 colon = tested on: KM12 colon
MCF7 breast = tested on: MCF7 breast
NCI-H226 lung = tested on: NCI-H226 lung
NCI-H23 lung = tested on: NCI-H23 lung
NCI-H460 lung = tested on: NCI-H460 lung
NCI-H522 lung = tested on: NCI-H522 lung
OVCAR-8 ovarian = tested on: OVCAR-8 ovarian
RPMI-8226 leukemia = tested on: RPMI-8226 leukemia
SF-295 CNS = tested on: SF-295 CNS
UACC-62 melanoma = tested on: UACC-62 melanoma
UO-31 renal = tested on: UO-31 renal
K-562 leukemia = tested on: K-562 leukemia
SF-539 CNS = tested on: SF-539 CNS
SR leukemia = tested on: SR leukemia

SMILES | TGI (786-0 renal) | TGI (A498 renal) | TGI (ACHN renal) | TGI (EKVX NSCLC) | TGI (HCT-116 colon) | TGI (IGROV1 ovarian) | TGI (KM12 colon) | TGI (MCF7 breast) | TGI (NCI-H226 lung) | TGI (NCI-H23 lung) | TGI (NCI-H460 lung) | TGI (NCI-H522 lung) | TGI (OVCAR-8 ovarian) | TGI (RPMI-8226 leukemia) | TGI (SF-295 CNS) | TGI (UACC-62 melanoma) | TGI (UO-31 renal) | TGI (K-562 leukemia) | TGI (SF-539 CNS) | TGI (SR leukemia)
CCCCSC1=N/C(=C\c2ccco2)C(Cl)=N1 | > 100 µM | > 100 µM | > 100 µM | > 100 µM | > 100 µM | > 100 µM | > 100 µM | > 100 µM | > 100 µM | > 100 µM | > 100 µM | > 100 µM | > 100 µM | > 100 µM | > 100 µM | > 100 µM | > 100 µM | – | – | –
COc1ccc2c(c1)C(=O)OCCC2 | > 100 µM | > 100 µM | > 100 µM | > 100 µM | > 100 µM | > 100 µM | > 100 µM | > 100 µM | > 100 µM | > 100 µM | > 100 µM | > 100 µM | > 100 µM | > 100 µM | > 100 µM | > 100 µM | > 100 µM | > 100 µM | > 100 µM | –
COc1ccc(-c2csc(Cc3nc4ccccc4c(=O)n3-c3ccc(Cl)cc3)n2)cc1 | > 100 µM | > 100 µM | > 100 µM | 62.7 µM | 57.9 µM | > 100 µM | > 100 µM | > 100 µM | > 100 µM | > 100 µM | > 100 µM | > 100 µM | > 100 µM | 45.8 µM | > 100 µM | 68.3 µM | > 100 µM | 41.8 µM | – | –
O=[N+]([O-])/C(C(Cl)=C(Cl)Cl)=C(/Nc1ccccc1)SCc1ccccc1 | 31.1 µM | 46.7 µM | 77.4 µM | 48.6 µM | 30.2 µM | 39.9 µM | 32.5 µM | – | 44.6 µM | 40.5 µM | 42.8 µM | 47.1 µM | 34.8 µM | 37.7 µM | 90 µM | 44.6 µM | 39 µM | 49.9 µM | 38.8 µM | 52.3 µM
CCOC(=O)C1(C/C=C/CBr)CCc2ccccc2C1=O (stereo not drawn) | 31.2 µM | 38 µM | 29.1 µM | 55 µM | 26.2 µM | 26.2 µM | 30.7 µM | 33.5 µM | 27.7 µM | 39.8 µM | – | 31.9 µM | 36.7 µM | – | 32.9 µM | 28.7 µM | 30.9 µM | – | 36.2 µM | –
Fc1ccc(C(=C2CCN(CCc3ccc4[nH]c(=S)[nH]c4c3)CC2)c2ccc(F)cc2)cc1 | 3.61 µM | 25 µM | 24.1 µM | 9.04 µM | 3.47 µM | 17 µM | 19.1 µM | 5.94 µM | 52.3 µM | 13.1 µM | 8.94 µM | 3.65 µM | 8.26 µM | 8.67 µM | 18.8 µM | 19 µM | 5.11 µM | > 100 µM | 7.74 µM | –
